Experimental data taken from patent US8168596B2, “Use of cycloartane compounds for treating arthritis” (NuLiv Holding Inc., priority 2008, dated 2012).

How the values were obtained:
MMP1 = settings: UO126 10 μM, SP600125 25 μM, SB203580 5 μM, 24 h, then PMA 100 ng/mL 24 h
Procedure: The SW1353 cells were grown at 37° C. in a humidified incubator under 5% CO2 and 95% air in the culture medium as described above. The SW1353 cells were then sub-cultured into 6-well culture plates with serum free medium at an average amount of 2×10^5 cells per well and incubated for 24 hours. Then, the SW1353 cells were treated with 10 μM UO126 (MEK1-specific inhibitor), 25 μM, SP600125 (JNK-specific inhibitor), 5 μM SB203580 (p38-specific inhibitor), or 20 μM LY294002 (PI3K kinase inhibitor), and incubated for another 24 hours. Later, the SW1353 cells were treated with 100 ng/mL PMA and again incubated for 24 hours. Finally, the SW1353 cells were under cell extraction and the cell lysate was used for further luciferase analysis and western blotting analysis.
The SW1353 cells were grown at 37° C. in a humidified incubator under 5% CO2 and 95% air in the culture medium as described above. The SW1353 cells were then sub-cultured into 24-well culture plates and cultured for 24 hours. […] Following cell extraction, the cell lysate was centrifuged at 4° C., 20000 g for 30 minutes and then transferred to a 1.5 ml-microcentrifuge tube. Then, 100 μl buffer A (0.1 mM luciferin) and 350 μl buffer B (1 M MgSO4, 1 M Hepes (pH 7.8), 0.1 M ATP) were added into the microcentrifuge tube. The luciferase activity of final mixture was measured by a luminometer for 30 seconds.

MMP-1 [1] = test: Zymography of MMP-1 from pre-treated SW1353 cells; assay type: cell-based, human; settings: PMA-pre-treated SW1353; 0.1 μM, 24 h
Procedure: (§1) At the beginning of the experiment, the cells were pre-treated with 100 ng/mL PMA or 10 ng/mL IL-1β for 24 hours. The cells were then treated with 0.1 μM Dexamethasone, various astragaloside compounds (0.1 μM) or extracts of Astragalus membranaceous (1 μg/mL) at indicated dosages for another 24 hours. For control sample, 0.1% DMSO was used as a negative control for these experiments. The conditioned culture mediums were then centrifuged, 2-fold concentrated and collected for assay of collagens or MMPs secreted into the culture medium.
(§2) The proteolytic activities of MMPs from SW1353 cells were measured essentially as described previously (Circ Res, 1999; 85:906-911). The cells were lysed in lysis buffer (1% Triton X-100, 50 mM Tris-Cl, pH 7.4, 180 mM NaCl, 1 mM EDTA). The samples were measured for their protein concentration using the bicinchoninic acid (BCA) protein assay kit as described. Samples of concentrated conditioned medium and cell lysates were mixed with non-reducing electrophoresis loading buffer and subjected to electrophoresis under non-reducing conditions. The electrophoresis was carried out on a 10% SDS-PAGE co-polymerized with 2 mg/mL gelatin or casein (Sigma, St. Louis, Mo. USA). For zymographic analysis of pro-MMP-2 and activated MMP-2, the total 20 μg of culture medium were used for electrophoresis. Following electrophoresis, renaturation of the proteins was achieved by incubating the gels twice in 25 g/L Triton X-100 at room temperature for 10 min. Subsequently the gels were incubated in 50 mM Tris-HCl, pH 7.5 containing 0.2 M NaCl, 0.02% Brij35 and 10 mM CaCl2 at 37° C. for 18 hours. After the gels were stained with Coomassie Brilliant Blue R-250 and destained, zones of proteolytic activities became visible as transparent bands in the stained gel. In order to obtain higher sensitivity, the gels were further destained in a solution of 1% Triton X-100 (1 to 2 hours). This procedure increased the signal-to-noise ratio, allowing the visualization of faint gelatinase bands at 92 kDa, 125 kDa and greater than 200 kDa. Zymograms were read using a Molecular Dynamics (Sunnyvale, Calif., USA) computing laser densitometer with Image Quant software.

HCH cells [2] = test: Proline uptake assay; assay type: cell-based, human; settings: astragalosides 0.1 μM, 24 h, Ctrl 1.00
Procedure: The proline uptake assay was carried out as described below, generally in accordance with the method disclosed in Biochim Biophys Acta. 1104:283-292, 1992, the contents of which are incorporated by reference. Briefly, HCH cells were seeded into a 24-well plate at a density of 3×10^4 cells per well and cultured for 24 hours. The cells were then treated in the absence (solvent control) or presence of the astragalosides (0.1 μM) or Astragalus membranaceous extracts (1.0 μg/mL) for another 24 hours. The treated cells were then washed once with PBS and incubated in amino acid free medium (AAFM) for another 30 min. The treated cells were then replaced with fresh AAFM containing 50 μg/mL of ascorbate and total of 0.5 mM of L-proline containing 1 μCi [^3H] Proline (American Radiolabelled Chemicals Inc, ARC, St. Louis, Mo., USA). At designated time intervals, the cells were washed with AAFM containing cold proline and then lysed in 200 μL of 2% SDS. Cell lysates were centrifuged at 15000 g for 15 min. Intracellular proline uptaken by the cells was determined by transferring 10 μL of the cell lysate to filter-bottomed UniFilter plates (Perkim-Elmer) and counting. The samples were measured for their protein concentrations using the BCA protein assay kit as described above. The amount of proline accumulated in the cells was calculated and normalized to protein concentration. And cellular uptake rate was expressed as nmole of L-proline per minute per […] of cell protein (nmole/min/μg).

MMP-2 = test: Zymography of MMP-2 from pre-treated SW1353 cells; assay type: cell-based, human; settings: PMA-pre-treated SW1353; 0.1 μM, 24 h
Procedure: as §1, §2

MMP-1 [3] = test: Western blot of MMP-1 in PMA- or IL-1β-pre-treated SW1353 cells (Example 6); assay type: cell-based, human; settings: 48 h
Procedure: (§3) The cells were then plated on 6-cm dishes at a density of 1×10^6 cells/dish for 24 hours prior to any treatment. At the beginning of the experiment, the cells were pre-treated with 100 ng/mL PMA or 10 ng/mL IL-1β for 24 hours. The cells were then treated 0.1 μM Dexamethasone with, various astragaloside compounds (0.1 μM) or extracts of Astragalus membranaceous (1 μg/mL) at indicated dosages for another 48 hours. For control sample, 0.1% DMSO was used as a negative control for these experiments. The conditioned culture mediums were then centrifuged, 2-fold concentrated and collected for assay of collagens or MMPs secreted into the culture medium.
(§4) Western blotting analysis was carried out on both cultured medium and cell lysates, as follows. The cells were washed and lysed in 0.2 mL of lysis buffer (1% NP-40, 50 mM Tris-HCl, pH 7.4, 180 mM NaCl, 1 mM EDTA, 1 mM PMSF, 1 mM NaF, 10 mM Na3VO4) for 30 min at 4° C. After centrifuging at 17500 g for 15 min, the supernatants of cell lysate were also collected. Protein concentration of the samples were measured using the bicinchoninic acid (BCA) protein assay kit according to the manufacturer's protocol (Pierce, Rockford, Ill., USA). Equal amount of protein samples of concentrated conditioned medium (100 μg) or cell lysate supernatants (50 μg) were mixed with an appropriate volume of 4×SDS sampling buffer and separated by 8% SDS-PAGE gel. The protein bands separated in the SDS-PAGE gel were blotted onto a polyvinylidene fluoride (PVDF) membrane. The blotted PVDF membrane was washed twice and blocked in freshly prepared Tris-buffered saline (TBS) containing 0.1% Tween-20 and 7% skim milk (TBST) for 2 hours at room temperature. The PVDF membrane was then incubated with either antibodies against collagen I and III or the housekeeping protein α-tubulin (Santa Cruz Biotechnology, Santa Cruz, Calif.) for 18 hours at 4° C. Horseradish peroxidase-conjugated anti-goat antibody was used as secondary antibody. Signals were visualized by an enhanced chemiluminescence kit (Clonetech, Palo Alto, Calif., USA) followed by exposure to X-ray films.

HCH cells [4] = test: Glucosamine uptake assay; assay type: cell-based, human; settings: astragalosides 0.1 μM, 24 h, Ctrl 1.00
Procedure: The HCHs were cultured as described above in Example 7. For the glucosamine uptake test, HCH cells were seeded into 24-well plate at a density of 3×10^4 cells per well and cultured for 24 hours. The cells were then treated in the absence (solvent control) or presence of the astragalosides (0.1 μM) or Astragalus membranaceous extracts (1.0 μg/mL) for another 24 hours. The treated cells were then washed twice with PBS and incubated in glucose and serum free medium (GSFM). After 2 hours, the cells were replaced with fresh GSFM containing 0.2 μCi of [^14C]-Glucosamine (American Radiolabelled Chemicals Inc, ARC, St. Louis, Mo., USA). At the designated time interval, the cells were washed twice with GSFM containing cold glucosamine and then lysed in 200 μL of 2% SDS. Cell lysates were centrifuged at 15000 g for 15 min. Intracellular uptaken glucosamine was determined by transferring 10 μL of the cell lysate to filter-bottomed UniFilter plates (Perkim-Elmer) and counting. The samples were measured for their protein concentration using the BCA protein assay kit as described above. The amount of glucosamine accumulated in the cells was calculated and normalized to protein concentration and uptake rate was expressed as counts per minute per microgram of cell protein (cpm/min/μg).

MMP-9 = test: Zymography of MMP-9 from pre-treated SW1353 cells; assay type: cell-based, human; settings: PMA-pre-treated SW1353; 0.1 μM, 24 h
Procedure: as §1, §2

MMP-13 [5] = test: Western blot of MMP-13 in PMA- or IL-1β-pre-treated SW1353 cells (Example 6); assay type: cell-based, human; settings: 0.1 μM, 48 h
Procedure: as §3
as §4, with “The PVDF membrane was then incubated with either antibodies against collagen I and III or the housekeeping protein α-tubulin (Santa Cruz Biotechnology, Santa Cruz, Calif.) for 18 hours at 4° C.” left out

Type II Collagen = test: Western blot of Type II Collagen in pre-treated human chondrocytes (HCHs); assay type: cell-based; settings: PMA-pre-treated HCH culture medium; 0.1 μM, 48 h
MMP-1 [6] = test: Western blot of MMP-1 in pre-treated human chondrocytes (HCHs); assay type: cell-based; settings: 0.1 μM, 48 h
MMP-13 [7] = test: Western blot of MMP-13 in pre-treated human chondrocytes (HCHs); assay type: cell-based; settings: 0.1 μM, 48 h
[8] = PMA-pre-treated SW1353 cell extract, 0.1 μM
[9] = PMA-pre-treated SW1353 culture medium, 0.1 μM
[10] = PMA-pre-treated SW1353 cell extract
[11] = PMA-pre-treated SW1353 culture medium
[12] = PMA-pre-treated HCH cell extract
[13] = PMA-pre-treated HCH culture medium

| Structure (SMILES) | luciferase activity (control group 1 fold, PMA-only group 8 fold) (MMP1) | MMP-1, Zymography, relative to Ctrl 1.00 (MMP-1 [1]) | proline uptake, Relative fold (HCH cells [2]) | MMP-2, Zymography, relative to Ctrl 1.00 (MMP-2) | MMP-1, Western blot, relative to Ctrl 1.00 (MMP-1 [3]; [8]) | MMP-1, Western blot, relative to Ctrl 1.00 (MMP-1 [3]; [9]) | glucosamine uptake, Relative fold (HCH cells [4]) | MMP-9, Zymography, relative to Ctrl 1.00 (MMP-9) | MMP-13, Western blot, relative to Ctrl 1.00 (MMP-13 [5]; [10]) | MMP-13, Western blot, relative to Ctrl 1.00 (MMP-13 [5]; [11]) | Type II Collagen, Western blot, relative to Ctrl 1.00 (Type II Collagen) | MMP-1, Western blot, relative to Ctrl 1.00 (MMP-1 [3]; IL-1β-pre-treated SW1353 cell extract, compounds 0.1 μM) | MMP-1, Western blot, relative to Ctrl 1.00 (MMP-1 [3]; IL-1β-pre-treated SW1353 culture medium, 0.1 μM) | MMP-1, Western blot, relative to Ctrl 1.00 (MMP-1 [6]; [12]) | MMP-1, Western blot, relative to Ctrl 1.00 (MMP-1 [6]; [13]) | MMP-13, Western blot, relative to Ctrl 1.00 (MMP-13 [7]; [12]) | MMP-13, Western blot, relative to Ctrl 1.00 (MMP-13 [7]; [13]) | MMP-13, Western blot, relative to Ctrl 1.00 (MMP-13 [5]; IL-1β-pre-treated SW1353 culture medium) |
| --- | --- | --- | --- | --- | --- | --- | --- | --- | --- | --- | --- | --- | --- | --- | --- | --- | --- | --- |
| C[S+]([O-])c1ccc(-c2nc(-c3ccncc3)c(-c3ccc(F)cc3)[nH]2)cc1 (stereo not shown) [SB203580] | 2 fold | – | – | – | – | – | – | – | – | – | – | – | – | – | – | – | – | – |
| CC(=O)O[C@H]1[C@H](O[C@H]2CC[C@]34C[C@]35CC[C@]3(C)[C@@H]([C@@]6(C)CC[C@@H](C(C)(C)O)O6)[C@@H](O)C[C@@]3(C)[C@@H]5C[C@H](O[C@@H]3O[C@H](CO)[C@@H](O)[C@H](O)[C@H]3O)[C@H]4C2(C)C)OC[C@@H](OC(C)=O)[C@@H]1O [IsoAS1, Isoastragaloside I] | – | 0.66 | 2.82 fold | 1.01 | 0.67 | 0.77 | 1.16 fold | 0.85 | 1.19 | 1.03 | – | – | – | – | – | – | – | – |
| CC(=O)O[C@@H]1[C@@H](O)[C@H](O[C@H]2CC[C@]34C[C@]35CC[C@]3(C)[C@@H]([C@@]6(C)CC[C@@H](C(C)(C)O)O6)[C@@H](O)C[C@@]3(C)[C@@H]5C[C@H](O[C@@H]3O[C@H](CO)[C@@H](O)[C@H](O)[C@H]3O)[C@H]4C2(C)C)OC[C@H]1O [IsoAS2, Isoastragaloside II] | – | 0.95 | 1.61 fold | 1.04 | 1.28 | 0.77 | 1.07 fold | 0.95 | 0.60 | 0.80 | – | – | – | – | – | – | – | – |
| CC(C)(O)C1CC[C@](C)(C2[C@@H](O)C[C@@]3(C)C4C[C@H](OC5OC(CO)C(O)C(O)C5O)C5C(C)(C)[C@@H](O)CCC56CC46CC[C@]23C)O1 (stereo partly drawn) [AA, cycloastragenol 6-O-β-D-glucopyranose] | – | – | 2.80 fold | – | – | 0.52 | 1.19 fold | – | – | 0.84 | 1.42 | 0.74 | 0.76 | 0.44 | 0.44 | 0.44 | 0.49 | 0.93 |
